Earlier results, collected in PMC11439047 (Nature Communications, 2024).

System: P2X1 receptor
Details: cited from earlier work

SMILES: O=C(O)c1cc(C(=O)O)c(C(=O)N(Cc2cccc(Oc3ccccc3)c2)[C@H]2CCCc3ccccc32)cc1C(=O)O [A-317491]
- activity for the P2X1 receptor: weak activity
